Measured values published in ChEMBL document CHEMBL1687820, “Photolysis of hydrogen peroxide, an effective disinfection system via hydroxyl radical formation” (Antimicrob Agents Chemother, 2010).

What was measured:
Assay type in all cases: functional, organism-based
Streptococcus mutans [1] = assay: Antibacterial activity against Streptococcus mutans JCM 5705 assessed as concentration required to 4 log reduction of viable organism measured after 300 mW of laser irradiation
[2] = system: Aggregatibacter actinomycetemcomitans; assay: Antibacterial activity against Aggregatibacter actinomycetemcomitans JCM 2434 assessed as reduction of viable organism at 1 M followed by 300 mW of laser irradiation measured within 3 mins
[3] = system: Aggregatibacter actinomycetemcomitans; assay: Antibacterial activity against Aggregatibacter actinomycetemcomitans JCM 2434 assessed as concentration required to 4 log reduction of viable organism measured after 300 mW of laser irradiation
Staphylococcus aureus [4] = assay: Antibacterial activity against Staphylococcus aureus ATCC 25923 assessed as concentration required to 4 log reduction of viable organism measured after 300 mW of laser irradiation
Enterococcus faecalis [5] = assay: Antibacterial activity against Enterococcus faecalis ATCC 29212 assessed as concentration required to 4 log reduction of viable organism measured after 300 mW of laser irradiation
Staphylococcus aureus [6] = assay: Antibacterial activity against Staphylococcus aureus ATCC 25923 assessed as reduction of viable organism at 1 M followed by 300 mW of laser irradiation measured within 3 mins
Streptococcus mutans [7] = assay: Antibacterial activity against Streptococcus mutans JCM 5705 assessed as reduction of biofilm at 1 M followed by 300 mW of laser irradiation measured within 3 mins by scanning electron microscopy
Enterococcus faecalis [8] = assay: Antibacterial activity against Enterococcus faecalis ATCC 29212 assessed as reduction of viable organism at 1 M followed by 300 mW of laser irradiation measured within 3 mins
Streptococcus mutans [9] = assay: Antibacterial activity against Streptococcus mutans JCM 5705 assessed as concentration required to 5 log reduction of biofilm measured after 300 mW of laser irradiation by scanning electron microscopy
Streptococcus mutans [10] = assay: Antibacterial activity against Streptococcus mutans JCM 5705 assessed as reduction of biofilm measured within 3 mins by scanning electron microscopy
Enterococcus faecalis [11] = assay: Antibacterial activity against Enterococcus faecalis ATCC 29212 assessed as reduction of viable organism measured after 300 mW of laser irradiation
Streptococcus mutans [12] = assay: Antibacterial activity against Streptococcus mutans JCM 5705 assessed as reduction of viable organism at 1 M followed by 300 mW of laser irradiation measured within 3 mins

For `[OH]`, the Activity (Streptococcus mutans [1]) was 173 µM, the log10CFU/ml [2] was > 4 and the Activity [3] was 89 µM. For the same compound, the Activity (Staphylococcus aureus [4]) was 173 µM, the Activity (Enterococcus faecalis [5]) was 258 µM and the log10CFU/ml (Staphylococcus aureus [6]) was > 4. The log10CFU/ml (Streptococcus mutans [7]) was > 5, the log10CFU/ml (Enterococcus faecalis [8]) was > 4 and the Activity (Streptococcus mutans [9]) was 258 µM. For the same compound, the log10CFU/ml (Streptococcus mutans [10]) was 1, the Activity (Enterococcus faecalis [11]) was “Dose-dependent effect” and the log10CFU/ml (Streptococcus mutans [12]) was 4.
